{"source": "ChEMBL document CHEMBL4308841", "about": "“Synthesis, in vitro antiproliferative activity, and kinase inhibitory effects of pyrazole-containing diarylureas and diarylamides” (Eur J Med Chem, 2018)", "data": [{"system": "SR", "assay": "Growth inhibition of human SR cells assessed as cell growth at 0.1 uM incubated for 48 hrs by sulforhodamine B assay relative to control", "format": "functional", "details": "read-out: Activity", "units": {"growth at 0.1 µM": "%"}, "values": [{"smiles": "COc1cc(Cl)cc(-c2nn(-c3cccc(NC(=O)Nc4ccc(Cl)c(Cl)c4)c3)cc2-c2ccncc2)c1", "growth at 0.1 µM": 51}]}, {"system": "MDA-MB-468", "assay": "(§1) Growth inhibition of human MDA-MB-468 cells incubated for 48 hrs by sulforhodamine B assay", "format": "functional, cell-based", "details": "MDA-MB-468, 48 h", "units": {"IC50": "nM"}, "values": [{"smiles": "COc1cc(Cl)cc(-c2nn(-c3cccc(NC(=O)Nc4ccc(Cl)c(Cl)c4)c3)cc2-c2ccncc2)c1", "IC50": 1740}]}, {"system": "MDA-MB-468", "assay": "as §1", "format": "functional, cell-based", "details": "MDA-MB-468, 48 h, read-out: GI50", "units": {"GI50": "nM"}, "values": [{"smiles": "COc1cc(Cl)cc(-c2nn(-c3cccc(NC(=O)Nc4ccc(Cl)c(Cl)c4)c3)cc2-c2ccncc2)c1", "GI50": 1740}]}, {"system": "MDA-MB-468", "assay": "as §1", "format": "functional, cell-based", "details": "MDA-MB-468, 48 h, read-out: LC50 (the source's name)", "units": {"CC50": "nM"}, "values": [{"smiles": "COc1cc(Cl)cc(-c2nn(-c3cccc(NC(=O)Nc4ccc(Cl)c(Cl)c4)c3)cc2-c2ccncc2)c1", "CC50": "> 100000"}]}, {"system": "MDA-MB-468", "assay": "as §1", "format": "functional, cell-based", "details": "MDA-MB-468, 48 h, read-out: TGI", "units": {"TGI": "nM"}, "values": [{"smiles": "COc1cc(Cl)cc(-c2nn(-c3cccc(NC(=O)Nc4ccc(Cl)c(Cl)c4)c3)cc2-c2ccncc2)c1", "TGI": 73700}]}, {"system": "MDA-MB-468", "assay": "as §1", "format": "functional, cell-based", "details": "MDA-MB-468, 48 h, read-out: pGI50 (converted)", "units": {"GI50": "nM"}, "values": [{"smiles": "COc1cc(Cl)cc(-c2nn(-c3cccc(NC(=O)Nc4ccc(Cl)c(Cl)c4)c3)cc2-c2ccncc2)c1", "GI50": 1740}]}, {"system": "MDA-MB-468", "assay": "as §1", "format": "functional, cell-based", "details": "MDA-MB-468, 48 h, read-out: pLC50 (the source's name) (converted)", "units": {"CC50": "nM"}, "values": [{"smiles": "COc1cc(Cl)cc(-c2nn(-c3cccc(NC(=O)Nc4ccc(Cl)c(Cl)c4)c3)cc2-c2ccncc2)c1", "CC50": "> 100000"}]}, {"system": "MDA-MB-468", "assay": "as §1", "format": "functional, cell-based", "details": "MDA-MB-468, 48 h, read-out: pTGI (converted)", "units": {"TGI": "nM"}, "values": [{"smiles": "COc1cc(Cl)cc(-c2nn(-c3cccc(NC(=O)Nc4ccc(Cl)c(Cl)c4)c3)cc2-c2ccncc2)c1", "TGI": 7410}]}, {"system": "UACC-257", "assay": "Growth inhibition of human UACC257 cells assessed as cell growth at 0.01 uM incubated for 48 hrs by sulforhodamine B assay relative to control", "format": "functional", "details": "UACC-257, 48 h, read-out: Activity", "units": {"growth at 0.01 µM": "%"}, "values": [{"smiles": "COc1cc(Cl)cc(-c2nn(-c3cccc(NC(=O)Nc4ccc(Cl)c(Cl)c4)c3)cc2-c2ccncc2)c1", "growth at 0.01 µM": 96}]}, {"system": "IGROV-1", "assay": "Growth inhibition of human IGROV1 cells assessed as cell growth at 0.01 uM incubated for 48 hrs by sulforhodamine B assay relative to control", "format": "functional", "details": "IGROV-1, 48 h, read-out: Activity", "units": {"growth at 0.01 µM": "%"}, "values": [{"smiles": "COc1cc(Cl)cc(-c2nn(-c3cccc(NC(=O)Nc4ccc(Cl)c(Cl)c4)c3)cc2-c2ccncc2)c1", "growth at 0.01 µM": 98}]}, {"system": "SK-MEL-2", "assay": "Growth inhibition of human SK-MEL-2 cells assessed as cell growth at 1 uM incubated for 48 hrs by sulforhodamine B assay relative to control", "format": "functional", "details": "SK-MEL-2, 48 h, read-out: Activity", "units": {"growth at 1 µM": "%"}, "values": [{"smiles": "COc1cc(Cl)cc(-c2nn(-c3cccc(NC(=O)Nc4ccc(Cl)c(Cl)c4)c3)cc2-c2ccncc2)c1", "growth at 1 µM": 80}]}, {"system": "CAKI-1", "assay": "Growth inhibition of human Caki1 cells assessed as cell growth at 1 uM incubated for 48 hrs by sulforhodamine B assay relative to control", "format": "functional", "details": "CAKI-1, 48 h, read-out: Activity", "units": {"growth at 1 µM": "%"}, "values": [{"smiles": "COc1cc(Cl)cc(-c2nn(-c3cccc(NC(=O)Nc4ccc(Cl)c(Cl)c4)c3)cc2-c2ccncc2)c1", "growth at 1 µM": 79}]}, {"system": "SN12C", "assay": "Growth inhibition of human SN12C cells assessed as cell growth at 100 uM incubated for 48 hrs by sulforhodamine B assay relative to control", "format": "functional", "details": "read-out: Activity", "units": {"growth at 100 µM": "%"}, "values": [{"smiles": "COc1cc(Cl)cc(-c2nn(-c3cccc(NC(=O)Nc4ccc(Cl)c(Cl)c4)c3)cc2-c2ccncc2)c1", "growth at 100 µM": 5}]}, {"system": "HCT-116", "assay": "Growth inhibition of human HCT116 cells assessed as cell growth at 0.01 uM incubated for 48 hrs by sulforhodamine B assay relative to control", "format": "functional", "details": "HCT-116, 48 h, read-out: Activity", "units": {"growth at 0.01 µM": "%"}, "values": [{"smiles": "COc1cc(Cl)cc(-c2nn(-c3cccc(NC(=O)Nc4ccc(Cl)c(Cl)c4)c3)cc2-c2ccncc2)c1", "growth at 0.01 µM": 105}]}, {"system": "LOX IMVI", "assay": "Growth inhibition of human LOXIMVI cells assessed as cell growth at 100 uM incubated for 48 hrs by sulforhodamine B assay relative to control", "format": "functional", "details": "read-out: Activity", "units": {"growth at 100 µM": "%"}, "values": [{"smiles": "COc1cc(Cl)cc(-c2nn(-c3cccc(NC(=O)Nc4ccc(Cl)c(Cl)c4)c3)cc2-c2ccncc2)c1", "growth at 100 µM": -30}]}, {"system": "COLO 205", "assay": "Growth inhibition of human COLO205 cells assessed as cell growth at 0.1 uM incubated for 48 hrs by sulforhodamine B assay relative to control", "format": "functional", "details": "COLO 205, 48 h, read-out: Activity", "units": {"growth at 0.1 µM": "%"}, "values": [{"smiles": "COc1cc(Cl)cc(-c2nn(-c3cccc(NC(=O)Nc4ccc(Cl)c(Cl)c4)c3)cc2-c2ccncc2)c1", "growth at 0.1 µM": 103}]}, {"system": "T47D", "assay": "Growth inhibition of human T47D cells assessed as cell growth at 1 uM incubated for 48 hrs by sulforhodamine B assay relative to control", "format": "functional", "details": "read-out: Activity", "units": {"growth at 1 µM": "%"}, "values": [{"smiles": "COc1cc(Cl)cc(-c2nn(-c3cccc(NC(=O)Nc4ccc(Cl)c(Cl)c4)c3)cc2-c2ccncc2)c1", "growth at 1 µM": 87}]}, {"system": "CCRF-CEM", "assay": "Growth inhibition of human CCRF-CEM cells assessed as cell growth at 0.1 uM incubated for 48 hrs by sulforhodamine B assay relative to control", "format": "functional", "details": "read-out: Activity", "units": {"growth at 0.1 µM": "%"}, "values": [{"smiles": "COc1cc(Cl)cc(-c2nn(-c3cccc(NC(=O)Nc4ccc(Cl)c(Cl)c4)c3)cc2-c2ccncc2)c1", "growth at 0.1 µM": 97}]}, {"system": "NCI-H460", "assay": "Growth inhibition of human NCI-H460 cells assessed as cell growth at 1 uM incubated for 48 hrs by sulforhodamine B assay relative to control", "format": "functional", "details": "NCI-H460, 48 h, read-out: Activity", "units": {"growth at 1 µM": "%"}, "values": [{"smiles": "COc1cc(Cl)cc(-c2nn(-c3cccc(NC(=O)Nc4ccc(Cl)c(Cl)c4)c3)cc2-c2ccncc2)c1", "growth at 1 µM": 77}]}, {"system": "ACHN", "assay": "Growth inhibition of human ACHN cells assessed as cell growth at 100 uM incubated for 48 hrs by sulforhodamine B assay relative to control", "format": "functional", "details": "read-out: Activity", "units": {"growth at 100 µM": "%"}, "values": [{"smiles": "COc1cc(Cl)cc(-c2nn(-c3cccc(NC(=O)Nc4ccc(Cl)c(Cl)c4)c3)cc2-c2ccncc2)c1", "growth at 100 µM": 6}]}, {"system": "NCI-H226", "assay": "Growth inhibition of human NCI-H226 cells assessed as cell growth at 1 uM incubated for 48 hrs by sulforhodamine B assay relative to control", "format": "functional", "details": "NCI-H226, 48 h, read-out: Activity", "units": {"growth at 1 µM": "%"}, "values": [{"smiles": "COc1cc(Cl)cc(-c2nn(-c3cccc(NC(=O)Nc4ccc(Cl)c(Cl)c4)c3)cc2-c2ccncc2)c1", "growth at 1 µM": 82}]}, {"system": "MDA-MB-435", "assay": "(§2) Growth inhibition of human MDA-MB-435 cells incubated for 48 hrs by sulforhodamine B assay", "format": "functional, cell-based", "details": "MDA-MB-435, 48 h, read-out: GI50", "units": {"GI50": "nM"}, "values": [{"smiles": "COc1cc(Cl)cc(-c2nn(-c3cccc(NC(=O)Nc4ccc(Cl)c(Cl)c4)c3)cc2-c2ccncc2)c1", "GI50": 2060}]}, {"system": "MDA-MB-435", "assay": "as §2", "format": "functional, cell-based", "details": "MDA-MB-435, 48 h, read-out: LC50", "units": {"LC50": "nM"}, "values": [{"smiles": "COc1cc(Cl)cc(-c2nn(-c3cccc(NC(=O)Nc4ccc(Cl)c(Cl)c4)c3)cc2-c2ccncc2)c1", "LC50": "> 100000"}]}]}
